# According to patent US9434688B2, “Indole derivatives as selective androgen receptor modulators (SARMS)” (Janssen Pharmaceutica, NV, priority 2004, dated 2016):
# Legend:
# androgen receptor [1] = target: T1, androgen receptor (Rattus norvegicus, UniProt P15207); test: COS-7 Whole-Cell Androgen Receptor Binding Assay, Adenovirus Transduction; conditions: COS Binding; for % Inhibition: concentration of 3000 nM unless otherwise noted
# T1 sequence (P15207 1-902): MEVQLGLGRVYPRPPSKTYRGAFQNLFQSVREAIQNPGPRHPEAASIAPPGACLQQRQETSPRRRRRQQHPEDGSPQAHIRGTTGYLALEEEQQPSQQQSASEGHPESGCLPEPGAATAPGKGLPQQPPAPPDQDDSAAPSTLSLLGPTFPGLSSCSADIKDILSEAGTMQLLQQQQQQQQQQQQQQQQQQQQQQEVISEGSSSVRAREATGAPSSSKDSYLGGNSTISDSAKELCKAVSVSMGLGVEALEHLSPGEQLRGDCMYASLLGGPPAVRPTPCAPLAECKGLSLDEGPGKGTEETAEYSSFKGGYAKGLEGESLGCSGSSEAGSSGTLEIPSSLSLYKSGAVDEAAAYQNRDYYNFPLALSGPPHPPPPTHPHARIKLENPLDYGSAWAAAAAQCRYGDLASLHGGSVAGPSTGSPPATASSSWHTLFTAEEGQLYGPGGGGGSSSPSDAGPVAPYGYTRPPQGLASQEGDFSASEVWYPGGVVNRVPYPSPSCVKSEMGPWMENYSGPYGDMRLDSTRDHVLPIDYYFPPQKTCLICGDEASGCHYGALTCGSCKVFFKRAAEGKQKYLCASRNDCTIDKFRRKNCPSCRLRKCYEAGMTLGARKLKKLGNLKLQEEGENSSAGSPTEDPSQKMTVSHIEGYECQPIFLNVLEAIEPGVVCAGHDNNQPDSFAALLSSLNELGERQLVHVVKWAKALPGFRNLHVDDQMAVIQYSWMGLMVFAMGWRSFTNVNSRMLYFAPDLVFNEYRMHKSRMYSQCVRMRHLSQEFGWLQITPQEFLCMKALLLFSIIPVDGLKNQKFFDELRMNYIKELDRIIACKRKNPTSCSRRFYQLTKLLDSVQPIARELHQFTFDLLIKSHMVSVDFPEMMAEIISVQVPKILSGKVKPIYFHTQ
# Method: COS-7 cells were plated in 96-well plates at 20,000 cells per well, in a solution of DMEM/F12 (GIBCO) containing 10% (v/v) charcoal-treated fetal bovine serum (Hyclone) and lacking phenol red. The cells were then incubated overnight at 37° C. in 5% (v/v) humidified CO2.
# Test compound solutions were prepared by diluting the test compound in 100% (v/v) DMSO, if necessary.
# Next, 1 mL of DMEM/F12 lacking phenol red was pipetted into each of the wells of a 2-mL 96-well assay block. […] The wells were carefully mixed by pipette.
# In a 15 mL or 50 mL sterile centrifuge tube, a dilution in DMEM/F12 of the adenovirus AdEasy+rAR at a moi of 1:50 per well was prepared.
# The medium was removed from the 96-well plates by inversion and the plates dried very briefly, inverted, on a sterile towel. As soon as possible after medium removal, 40 μL of the diluted test compound was added to each well, in duplicate. […] The plates were then incubated for 48 hours at 37° C. in 5% (v/v) humidified CO2.
# The medium was removed from the above incubated plates by inversion and dried. Each well was then washed with 0.35 mL of 1×PBS. The PBS was then removed from the plates by inversion and the plates dried.
# To each well was then added 50 μL of 0.5% (v/v) Triton X-100 (Sigma) in 1×PBS and the plates placed on a rotary shaker for 5 min. The contents of each well were then transferred to an OptiPlate-96 (Packard) scintillation plate. To each well was then added 0.2 mL of Microscint-20 (Packard) and the wells counted on a TopCount (Packard).
# Percent inhibition was determined by testing dilutions of the test compound (usually duplicates of 10 μM) in the binding assay. Counts per well were measured and percents of inhibition determined. […] Counts per well were measured and IC50s determined by linear regression.
# androgen receptor [2] = target: T1, androgen receptor; test: L929 Androgen Receptor Functional Assay, Adenovirus Transduction; assay type: cell-based; design: expressed in transfected cells; host or cells: L929 cells transduced with adenovirus AdEasy+rAR; conditions: concentration of 3000 nM; for % Activity: L929 agonist testing; for % Inhibition: L929 antagonist testing with R1881
# Method: L929 cells were plated in 96-well plates at 20,000 cells per well, in DMEM/F12 (GIBCO) containing 10% (v/v) charcoal-treated fetal bovine serum (Hyclone) and lacking phenol red. The plates were then incubated overnight at 37° C. in 5% (v/v) humidified CO2.
# Test compound dilutions were prepared in 100% (v/v) DMSO, if necessary. Each dilution was made to 1250× the final desired assay concentration.
# First, 2 mL of DMEM/F12 lacking phenol red was pipetted into the wells of a 2-mL 96-well assay block. Next, 4 μL of the 1250× test compound dilutions were pipetted into each well of the assay block. The mixtures within the well were then carefully mixed by pipette.
# In a 15 mL or 50 mL sterile centrifuge tube, a 2.5 nM (2.5×) dilution of R1881 (methyl-trienolone) in DMEM/F12 lacking phenol red was prepared.
# In a second 15 mL or 50 mL centrifuge tube a solution containing an equal volume of DMEM to the first and an equal volume of 100% (v/v) DMSO to the volume of R1881 used in the first tube was prepared.
# In a 15 mL or 50 mL sterile centrifuge tube, a dilution in DMEM/F12 of the adenovirus AdEasy+rAR at an moi of 1:500 per well was prepared.
# The medium was removed from the 96-well plates by inversion and dried, inverted, very briefly. As soon as possible after medium removal, 40 μL of the diluted unlabeled test compound was added to each well, in duplicate. To each well designated for antagonist testing was added 40 μL of the 2.5 nM R1881 dilution to the wells for antagonist testing. To each well designated for agonist testing was added 40 μL of the DMSO dilution. Then 20 μL of the diluted adenovirus were added to all wells. The plates were incubated for 48 hours at 37° C. in 5% (v/v) humidified CO2.
# To each well was added 100 μL of Steady-Glo luciferase assay substrate (Promega) and the plates were placed on a rotary shaker for 1 min. The plates were then incubated at room temperature in the dark for one hour. The contents of each well were then transferred to a white microtiter plate (Packard) and read on a Luminoskan Ascent (Thermo Lab Systems).
# L929 AR percent activity was determined by testing dilutions of the test compound using a concentration of 3000 nM unless otherwise noted. L929 percent inhibition was determined by testing dilutions of the test compound using a concentration of 3000 nM. […] Luciferase activity per well were measured and EC50s and IC50s determined by linear regression.
# [3] = system: castrated male Sprague Dawley rats; test: Ventral Prostate and Seminal Vesicle Weight In Vivo Assay; design: species or system rat; key: active: non weight adjusted prostate weight was ≦40 mg or the % Inhibition prostate weight, body weight adjusted was ≧40% @ 2 mg/day dosage; inactive: they did not meet the specified criteria defined above; conditions: immature castrated male rats, once daily for five days, with testosterone propionate 2 mg/kg subcutaneously
# Method: Immature (approximately 50 g) castrated male Sprague Dawley rats (Charles River) were treated once daily for five days with test compound (usually given orally at 40 mg/kg in a volume of 0.3 mL, in 30% cyclodextrin or 0.5% methylcellulose vehicle) and with testosterone propionate (given subcutaneously by injection at the nape of the neck at 2 mg/kg, in a volume of 0.1 mL in sesame oil). On the sixth day, the rats were euthanized by asphyxiation in carbon dioxide. Ventral prostates and seminal vesicles were removed and their wet weights determined.
# A test compound was said to be “active” if the non weight adjusted prostate weight was ≦40 mg or the % Inhibition prostate weight, body weight adjusted was ≧40% @ 2 mg/day dosage.
# androgen receptor [4] = target: T1, androgen receptor; test: Androgen Receptor Binding Using Rat Ventral Prostate Cytosol; design: from tissue; host or cells: ventral prostate cytosol of castrated male Sprague Dawley or Wistar rats; conditions: Rat Cytosol; Concentration 3000 nM
# Method: Rat Prostate Cytosol Preparation:
# Male Sprague Dawley or Wistar rats (Charles River, 200-300 g) were used for each preparation. The day before preparing the cytosol, the rats were castrated using standard surgical procedures.
# The rats were euthanized by carbon dioxide asphyxiation. The rat prostates were quickly removed and placed on ice in pre-chilled, pre-weighed 50 mL plastic tubes. No more than five prostates were placed into one tube. The tubes were then weighed and the prostate tissue wet weights calculated.
# To the chilled prostate tissue was then added […] of chilled homogenization buffer. The homogenization buffer was freshly prepared by mixing 10 mM Tris.HCl, pH 7.4, 1 mM sodium molybdate, 1.5 mM EDTA, 1 mM dithiothreitol, 10% (v/v) glycerol and 1% protease inhibitor cocktail (Sigma P 8340).
# The prostate tissue was homogenized in a cold room using a pre-chilled Polytron PT3000 homogenizer (Brinkmann). Homogenization was performed at a speed setting of 20, three times for 10 sec bursts. The tubes containing the prostate tissue was kept on ice while homogenizing. The homogenate was allowed to rest on ice for 20 sec between bursts.
# The homogenate was then placed into pre-chilled 3 mL polycarbonate ultracentrifuge tubes and centrifuged in the TLA-100 rotor of a TL-100 ultracentrifuge for 12 min at 100,000 rpm at 4° C. The resulting supernatant was stored in 1 mL aliquots at −80° C. until needed.
# Binding to the androgen receptor was determined according to the protocol described in Example 86 using the above prepared rat cytosol.
# % Inhibition was determined by testing dilutions of the test compound (usually duplicates of 10 μM) in the binding assay. Counts per well were measured and percents of inhibition determined. […] Counts per well were measured and IC50s determined by linear regression.
SMILES,% Inhibition (androgen receptor [1]),% Activity (androgen receptor [2]),active / inactive: inhibition of testosterone-enhanced prostate weight [3],further results
CCSCC(C)(O)c1cc2cc(F)c(Cl)cc2[nH]1 (racemic) [compound 206],−40%,5%,active,–
CCSCC(C)(O)c1[nH]c2cc(C(F)(F)F)c(Br)cc2c1C (centres unmarked) [compound 220],–,–,–,IC50 (androgen receptor [1]): 34 nM
COc1ccc(S(=O)(=O)CC(C)(O)c2cc3cc(Cl)c(C(F)(F)F)cc3[nH]2)cc1 (racemic) [compound 129],10%,−5%,–,% Inhibition (androgen receptor [4]): 39.5%; % Inhibition (androgen receptor [2]): −8%
CSCC(C)(O)c1cc2cc([N+](=O)[O-])c(C(F)(F)F)cc2[nH]1 (centres unmarked) [compound 139],–,–,active,–
CCSCC(C)(O)c1[nH]c2cc(C(F)(F)F)c([N+](=O)[O-])cc2c1C (racemic) [compound 221],–,−1%,inactive,–
O=[N+]([O-])c1cc2cc(C3(O)CCSC3)[nH]c2cc1C(F)(F)F (centres unmarked) [compound 18],–,–,inactive,–
C[S+]([O-])CCC(C)(O)c1cc2cc([N+](=O)[O-])c(C(F)(F)F)cc2[nH]1 (mixture of isomers) [compound 50],7%,2%,–,–
COc1ccc(SCC(C)(O)c2cc3cc(Cl)c(C(F)(F)F)cc3n2S(C)(=O)=O)cc1 (racemic) [compound 130],−8%,−5%,–,% Inhibition (androgen receptor [4]): 32.55%
CCSCC(C)(O)c1cc2cc(C#N)c(Cl)cc2[nH]1 (centres unmarked) [compound 225],–,–,active,–
CC(O)(CSc1ccc(N)cc1)c1cc2cc(Cl)c(C(F)(F)F)cc2n1S(C)(=O)=O (racemic) [compound 125],30%,−5%,–,–
"CC(O)(CSCC(F)(F)F)c1cc2cc([N+](=O)[O-])c(C(F)(F)F)cc2[nH]1 (single isomer, unassigned) [compound 202]",50%,1%,–,–
CCSCC(C)(O)c1cc2cc(Cl)ccc2n1S(C)(=O)=O (racemic) [compound 154],50%,2%,–,% Inhibition (androgen receptor [2]): 7%
N#Cc1cc2cc(C3(O)CCSC3)[nH]c2cc1C(F)(F)F (centres unmarked) [Compound #15],–,–,inactive,–
OC1(c2cc3cc(Cl)c(C(F)(F)F)cc3[nH]2)CCSC1 (centres unmarked) [compound 14],–,–,inactive,–
CC(O)(C[S+]([O-])Cc1ccccc1)c1cc2cc([N+](=O)[O-])c(C(F)(F)F)cc2[nH]1 (mixture of isomers) [compound 161],20%,2%,–,% Inhibition (androgen receptor [4]): 39%
CC(O)(Sc1ccc(N)cc1)c1cc2cc([N+](=O)[O-])c(C(F)(F)F)cc2[nH]1 (racemic) [compound 266],–,−4%,–,% Inhibition (androgen receptor [4]): 12.4%
